Laboratory results reported in patent US20080275078A1, “Pyrazolo[3,4-B] Pyridine Compounds and Their Use as Pde4 Inhibitors” (Glaxo Group Limited, priority 2004, published 2008).

Tested on: dinitrofluorobenzene (DNFB)-induced delayed type hypersensitivity (DTH) response in pigs
Experiment: In Vivo Assay A: pig model of atopic dermatitis, skin topical administration
Details: 1% (w/w) cream formulation; p<0.05 by ANOVA
Text: The pig DTH (delayed type hypersensitivity) model of contact hypersensitivity utilizes the Th2-mediated inflammatory response in pig skin to mimic the pathology of atopic dermatitis in humans. The model measures the potential anti-inflammatory effect of compounds, topically-applied to the skin, on the acute DTH (delayed type hypersensitivity) response in castrated male Yorkshire pigs.
In general in the assay, pigs (domestic Yorkshire pigs, 15-18 kg at time of sensitization, castrated males) are first sensitized by topical application of ca. 10% (w/v) dinitrofluorobenzene (DNFB) dissolved in DMSO:acetone:olive oil (ca. 1:5:3) (ca. 40 mg DNFB, 400 microlitre solution total) to the ears (outer) and groin (inner). The pigs are then challenged 12 days later with ca. 0.6% (w/v) DNFB applied to randomized sites on the shaved back of the pigs (ca. 90 micrograms/site; sites are identified and numbered by grid made with marking pen).
On the day of challenge, the treatments are performed at the challenge sites at about 2 hours prior to and about 6 hours after challenge (for DMSO/acetone solutions/suspensions containing the PDE4 inhibitor, to maximize exposure to drug), or at about 30 minutes after and about 6 hours after challenge (for topical ointments or creams containing the PDE4 inhibitor, representing a more clinically relevant treatment protocol).
One day (about 24 hrs) after challenge, and optionally again at ca. 48 hrs post challenge, test sites are visually evaluated for intensity and extent of erythema by measuring the diameter of the reaction at its widest point and assigning scores of 0 to 4 for each of erythema intensity and erythema extent. Induration (a measure of swelling) is also scored 0 to 4. Scores for erythema intensity, erythema extent and induration are assigned according to the following criteria: Intensity of Erythema: 0=normal, 1=minimal, barely visible, 2=mild, 3=moderate, 4=severe. Extent of Erythema (not raised): 0=no edema, 1=macules of pin head size, 2=lentil sized macules, 3=confluent macules, 4=diffuse over entire site. Induration (palpable): 0=normal, 1=nodules of pin head size, 2=doughy lentil sized nodules, 3=confluent firm nodules, 4=diffuse hard lesion. The summed visual score at ca. 24 hours includes the individual scores for erythema intensity, erythema extent, and induration; so the maximal summed score for each site would be 12. High summed scores can generally indicate a high inflammatory response. Visual scores are subject to some inaccuracy/error.
Differences in the summed score between adjacent control (placebo) and treatment sites on the grids are calculated. This difference value is then used to determine the percent inhibition compared to the summed score for the control (placebo) sites. The more negative the difference value, the greater the calculated inhibition. Percent inhibition of (percent inhibition compared to) the mean summed score can be calculated.
About 24 hours after challenge, treatment sites can optionally also be visually evaluated for lesion area.
The anti-inflammatory effect of the compound 4-{[1-(aminocarbonyl)-4-piperidinyl]amino}-N-[(3,4-dimethylphenyl)methyl]-1-ethyl-1H-pyrazolo[3,4-b]pyridine-5-carboxamide (“Example 2 or 2A compound”), applied topically to the skin, on the acute DTH response in castrated male Yorkshire pigs is compared to that of another PDE4 inhibitor cipamfylline (BRL-61063) and the topical immunomodulator pimecrolimus.
In the above assay, the Example 2 or 2A compound is topically administered: either (A) at ca. 2.5% (w/v) concentration in a solution of ca. 10% DMSO/90% acetone (ca. 50 microlitres or ca. 1.5 mg/site) at about 2 hours prior to and about 6 hours after the DNFB challenge; or (B) at ca. 0.5% (w/w) concentration in an ointment containing propylene glycol (PG)* (ca. 25 mg of formulation/site) at about 30 minutes after and about 6 hours after the DNFB challenge. […]

Structure (SMILES) | inhibition of the summed scores
CC[C@@H]1/C=C(\C)C[C@H](C)C[C@H](OC)[C@H]2O[C@@](O)(C(=O)C(=O)N3CCCC[C@H]3C(=O)O[C@H](/C(C)=C/[C@@H]3CC[C@H](Cl)[C@H](OC)C3)[C@H](C)[C@@H](O)CC1=O)[C@H](C)C[C@@H]2OC [pimecrolimus, reference compound] | about 29%

Biological target: T1, PDE4B (human recombinant) (Homo sapiens, UniProt Q07343)
T1 construct: made in house; host or cells: Saccharomyces cerevisiae strain GL62 (PDE-deficient yeast), 100,000xg supernatant of cell lysate, as described in WO 94/20079
T1 sequence (Q07343 1-564 isoform Q07343-2): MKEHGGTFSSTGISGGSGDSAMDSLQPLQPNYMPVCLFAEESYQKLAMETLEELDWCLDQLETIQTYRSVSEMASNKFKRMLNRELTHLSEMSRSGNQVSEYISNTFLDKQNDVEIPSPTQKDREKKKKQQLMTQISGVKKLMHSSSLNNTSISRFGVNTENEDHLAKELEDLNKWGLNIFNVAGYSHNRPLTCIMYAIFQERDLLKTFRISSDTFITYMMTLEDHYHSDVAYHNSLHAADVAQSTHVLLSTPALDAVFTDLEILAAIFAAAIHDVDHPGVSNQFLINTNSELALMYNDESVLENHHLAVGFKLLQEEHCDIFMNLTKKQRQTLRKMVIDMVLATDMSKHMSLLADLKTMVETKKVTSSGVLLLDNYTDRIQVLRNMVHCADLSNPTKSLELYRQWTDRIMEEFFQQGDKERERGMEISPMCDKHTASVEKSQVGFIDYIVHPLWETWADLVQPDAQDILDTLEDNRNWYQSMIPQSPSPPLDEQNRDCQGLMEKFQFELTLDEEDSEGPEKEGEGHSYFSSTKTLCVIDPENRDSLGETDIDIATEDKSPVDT
Experiment: Inhibition of PDE4B activity (SPA or FP assay)
Format: biochemical
Details: SPA or FP assay or similar; n=1 or average of 2 or more readings; range given for the listed group of Examples; read-out: PDE4B pIC50 (±about 0.5) (converted)
Text: Human recombinant PDE4B, in particular the 2B splice variant thereof (HSPDE4B2B), is disclosed in WO 94/20079 and also M. M. McLaughlin et al., “A low Km, rolipram-sensitive, cAMP-specific phosphodiesterase from human brain: cloning and expression of cDNA, biochemical characterisation of recombinant protein, and tissue distribution of mRNA”, J. Biol. Chem., 1993, 268, 6470-6476. For example, in Example 1 of WO 94/20079, human recombinant PDE4B is described as being expressed in the PDE-deficient yeast Saccharomyces cerevisiae strain GL62, e.g. after induction by addition of 150 uM CuSO4, and 100,000×g supernatant fractions of yeast cell lysates are described for use in the harvesting of PDE4B enzyme.
The ability of compounds to inhibit catalytic activity at PDE4B or 4D (human recombinant), PDE3 (from bovine aorta), PDE5 (human recombinant) or PDE6 (from bovine retina) can optionally be determined by Scintillation Proximity Assay (SPA) in a 96-well format. • Test compounds (as a solution in DMSO, preferably about 2 microlitre (ul) volume of DMSO solution) are preincubated at ambient temperature (room temperature, e.g. 19-23° C.) in Wallac Isoplates (code 1450-514) with PDE enzyme in 50 mM Tris-HCl buffer pH 7.5, 8.3 mM MgCl2, 1.7 mM EGTA, 0.05% (w/v) bovine serum albumin for 10-30 minutes (usually 30 minutes). The enzyme concentration is adjusted so that no more than 20% hydrolysis of the substrate defined below occurs in control wells without compound, during the incubation. For the PDE3, PDE4B and PDE4D assays, [5′,8-^3H]Adenosine 3′,5′-cyclic phosphate (Amersham Pharmacia Biotech, code TRK.559; or Amersham Biosciences UK Ltd, Pollards Wood, Chalfont St Giles, Buckinghamshire HP8 4SP, UK) is added to give 0.05 uCi per well and about 10 nM final concentration. For the PDE5 and PDE6 assays, [8-^3H]Guanosine 3′,5′-cyclic phosphate (Amersham Pharmacia Biotech, code TRK.392) is added to give 0.05 uCi per well and about 36 nM final concentration. Plates containing assay mixture, preferably approx. 100 ul volume of assay mixture, are mixed on an orbital shaker for 5 minutes and incubated at ambient temperature for 1 hour. Phosphodiesterase SPA beads (Amersham Pharmacia Biotech, code RPNQ 0150) are added (about 1 mg per well) to terminate the assay. Plates are sealed and shaken and allowed to stand at ambient temperature for 35 minutes to 1 hour (preferably 35 minutes) to allow the beads to settle. Bound radioactive product is measured using a WALLAC TRILUX 1450 Microbeta scintillation counter. For inhibition curves, 10 concentrations (e.g. 1.5 nM-30 uM) of each compound are assayed. Curves are analysed using ActivityBase and XLfit (ID Business Solutions Limited, 2 Ocean Court, Surrey Research Park, Guildford, Surrey GU2 7QB, United Kingdom) Results are expressed as pIC50 values.
The ability of compounds to inhibit catalytic activity at PDE4B (human recombinant) or PDE4D (human recombinant) can optionally be determined by IMAP Fluorescence Polarisation (FP) assay (IMAP Explorer kit, available from Molecular Devices Corporation, Sunnydale, Calif., USA; Molecular Devices code: R8062) in a 384-well format.
The IMAP FP assay is able to measure PDE activity in an homogenous, non-radioactive assay format. The FP assay uses the ability of immobilised trivalent metal cations, coated onto nanoparticles (tiny beads), to bind the phosphate group of Fl-AMP that is produced on the hydrolysis of fluorescein-labelled (Fl) cyclic adenosine mono-phosphate (Fl-cAMP) to the non-cyclic Fl-AMP form. […] Binding of Fl-AMP product to the beads (coated with the immobilised trivalent cations) slows the rotation of the bound Fl-AMP and leads to an increase in the fluorescence polarisation ratio of parallel to perpendicular light. Inhibition of the PDE reduces/inhibits this signal increase. […]

IC50 | Structure (SMILES)
1.26 to 5.01 nM | CCn1ncc2c(N[C@H]3CC[C@@H](C(N)=O)CC3)c(C(=O)NCc3ccc(OC)cc3)cnc21 [Example 47, 4-{[cis-4-(aminocarbonyl)cyclohexyl]amino}-1-ethyl-N-{[4-(methyloxy)phenyl]methyl}-1H-pyrazolo[3,4-b]pyridine-5-carboxamide]
~10 nM | CCn1ncc2c(N[C@H]3CCN(C(N)=O)C3)c(C(=O)NCc3ccc(C)cc3C)cnc21 [Example 69, 4-{[(3S)-1-(aminocarbonyl)-3-pyrrolidinyl]amino}-N-[(2,4-dimethylphenyl)methyl]-1-ethyl-1H-pyrazolo[3,4-b]pyridine-5-carboxamide]
~10 nM | CCn1ncc2c(N[C@H]3CCN(C(N)=O)C3)c(C(=O)NCc3ccc(C)c(C)c3)cnc21 [Example 70, 4-{[(3S)-1-(aminocarbonyl)-3-pyrrolidinyl]amino}-N-[(3,4-dimethylphenyl)methyl]-1-ethyl-1H-pyrazolo[3,4-b]pyridine-5-carboxamide]
31.6 to 100 nM | CCn1ncc2c(N[C@@H]3CCN(C(N)=O)C3)c(C(=O)NCc3ccc(C)cc3C)cnc21 [Example 71, 4-{[(3R)-1-(aminocarbonyl)-3-pyrrolidinyl]amino}-N-[(2,4-dimethylphenyl)methyl]-1-ethyl-1H-pyrazolo[3,4-b]pyridine-5-carboxamide]
31.6 to 100 nM | CCn1ncc2c(N[C@@H]3CCN(C(N)=O)C3)c(C(=O)NCc3ccc(C)c(C)c3)cnc21 [Example 72, 4-{[(3R)-1-(aminocarbonyl)-3-pyrrolidinyl]amino}-N-[(3,4-dimethylphenyl)methyl]-1-ethyl-1H-pyrazolo[3,4-b]pyridine-5-carboxamide]

The next lines start with the compound.

Structure (SMILES) | IC50
CCn1ncc2c(NC3CCN(C(N)=O)CC3)c(C(=O)NCc3ccc(C)cc3C)cnc21 [Example 1, 4-{[1-(aminocarbonyl)-4-piperidinyl]amino}-N-[(2,4-dimethylphenyl)methyl]-1-ethyl-1H-pyrazolo[3,4-b]pyridine-5-carboxamide] | 0.631 to 0.794 nM
CCn1ncc2c(NC3CCN(C(N)=O)CC3)c(C(=O)NCc3ccc(OC)cc3)cnc21 [Example 3, 4-{[1-(aminocarbonyl)-4-piperidinyl]amino}-1-ethyl-N-{[4-(methyloxy)phenyl]methyl}-1H-pyrazolo[3,4-b]pyridine-5-carboxamide] | 1 to 3.16 nM
CCn1ncc2c(NC3CCC(C(N)=O)CC3)c(C(=O)NCc3ccc(C)c(C)c3)cnc21 (centres unmarked) [Example 4, 4-{[4-(aminocarbonyl)cyclohexyl]amino}-N-[(3,4-dimethylphenyl)methyl]-1-ethyl-1H-pyrazolo[3,4-b]pyridine-5-carboxamide] | 1 to 3.16 nM
CCn1ncc2c(NC3CCC(C(N)=O)CC3)c(C(=O)NCc3ccc(C)cc3C)cnc21 (centres unmarked) [Example 5, 4-{[4-(aminocarbonyl)cyclohexyl]amino}-N-[(2,4-dimethylphenyl)methyl]-1-ethyl-1H-pyrazolo[3,4-b]pyridine-5-carboxamide] | 1 to 3.16 nM
CCn1ncc2c(N[C@H]3CC[C@@H](C(N)=O)CC3)c(C(=O)NCc3ccc(C)c(C)c3)cnc21 [Example 8, 4-{[cis-4-(aminocarbonyl)cyclohexyl]amino}-N-[(3,4-dimethylphenyl)methyl]-1-ethyl-1H-pyrazolo[3,4-b]pyridine-5-carboxamide] | 1 to 3.16 nM
CCn1ncc2c(N[C@H]3CC[C@H](C(N)=O)CC3)c(C(=O)NCc3ccc(C)c(C)c3)cnc21 [Example 9, 4-{[trans-4-(aminocarbonyl)cyclohexyl]amino}-N-[(3,4-dimethylphenyl)methyl]-1-ethyl-1H-pyrazolo[3,4-b]pyridine-5-carboxamide] | 158 to 200 nM
CCn1ncc2c(N[C@H]3CC[C@@H](C(N)=O)CC3)c(C(=O)NCc3ccc(C)cc3C)cnc21 [Example 45, 4-{[cis-4-(aminocarbonyl)cyclohexyl]amino}-N-[(2,4-dimethylphenyl)methyl]-1-ethyl-1H-pyrazolo[3,4-b]pyridine-5-carboxamide] | 1.26 to 5.01 nM
CCn1ncc2c(N[C@H]3CC[C@H](C(N)=O)CC3)c(C(=O)NCc3ccc(C)cc3C)cnc21 [Example 46, 4-{[trans-4-(aminocarbonyl)cyclohexyl]amino}-N-[(2,4-dimethylphenyl)methyl]-1-ethyl-1H-pyrazolo[3,4-b]pyridine-5-carboxamide] | 158 to 200 nM
